Assay results: patent US5421897A, “Abatement process for contaminants” (priority 1992, dated 1995)
Like-named read-outs stand apart in the source and are kept apart here.

How the values were obtained:
man = conditions: cited from earlier work
[1] = C.A. 96:47119t, 101:189850v; cited from earlier work
gpg [2] = conditions: orl-gpg; cited from earlier work
gpg [3] = experiment: Oral toxicity orl-gpg LDLo (lead toxicity mitigation); conditions: transformation of lead oxide to lead sulfide
[4] = Sax, 6th Ed., P. 347; cited from earlier work
[5] = C.A. 95:36562k; cited from earlier work
[6] = C.A. 98:100331a; cited from earlier work
[7] = 25° C.; cited from earlier work
mus = conditions: scu-mus; cited from earlier work
[8] = Time required to form solid-state, sodium silicofluoride added to Neoprene 671 latex; type: physicochemical
From the text: If the overspray method is not preferred, an in-situ solidifying compound can be used that reduces the application process to a single step. To effect in-situ transformation from the liquid to the solid state, about 0.25 to about 6 parts of a solidifying compound such as ammonium silicofluoride, sodium silicofluoride, or potassium silicofluoride per hundred parts solid resin (phr) may be added to the liquid-state composition as a finely ground (e.g., ball milled) dispersion just prior to application.
The time required to form a solid-state will vary according to concentration of solidifying compound and polymer type. By way of example, when sodium silicofluoride was added to Neoprene 671 latex, the following results were attained.

[9] = C.A. 103:136646t; cited from earlier work
[10] = C.A. 101:205528d; cited from earlier work
dog = conditions: scu-dog; cited from earlier work
[11] = Copper oxide cleaning (Example 5), painted cinder block; conditions: weight loss
Method: Samples of coarse, deep pore cinder block (2×2×1/2 inch) were sealed by spray applying a 4-7 mil wet film thickness coating of interior, semigloss alkyd paint. The coated samples were air dried at ambient temperature for 7 days and subsequently cured at 150° F. for 8 hours. A 5% dispersion of copper oxide in hexane was spray applied until the dry copper oxide up-take reached approximately 250 mg/sample. After spraying, the samples were allowed to dry at ambient temperature for 24 hours, whereupon 20-25 wet mils of the liquid-state composition were spray applied over the contaminated surfaces. After 10 minutes, the liquid-statecomposition was scrubbed into the surface using the circular action of a nylon dental brush. After 20 scrub cycles, the brush was removed, and an additional 25-30 mils wet film thickness of liquid-state composition were spray applied over the treated area. After drying for 24 hours at ambient temperature, the solid-state matrix was removed and the reverse side was inspected. […] The larger matrix projections reached 0.6 to 0.9 mm in length. […] A subtle discoloration of the white alkyd paint (graying) was noted. Weight-loss measurements indicated 78% removal of CuO. […]

[12] = C.A. 100:116031y; cited from earlier work

**Q.** What does the source list for `O=C([O-])[O-].O=C([O-])[O-].[OH-].[OH-].[Pb+2].[Pb+2].[Pb+2]` [White lead]?
**A.** Symptoms (man; in vivo): Same as lead halides; TDLo (man; orl-man): 214 mg/kg

**Q.** With `O=P(O)(O)O[C@H]1[C@H](OP(=O)(O)O)[C@@H](OP(=O)(O)O)[C@H](OP(=O)(O)O)[C@@H](OP(=O)(O)O)[C@H]1OP(=O)(O)O` [Sodium phytate] as the molecule, how does the antidotal activity [1] read?
**A.** provides antidotal activity

**Q.** For `[S]=[Pb]` [lead sulfide], which LDLo (gpg [2]) is on record?
**A.** 10 gm/Kg

**Q.** What about the reduction in toxicity (gpg [3]) of the same molecule?
**A.** 10 fold

**Q.** With Barium sulfate as the molecule, how does the acute toxicity [4] read?
**A.** not being acutely toxic

**Q.** Which LDLo (man; orl-hmm) does the source give for `[Ba]` [Barium] here?
**A.** 11.4 mg/kg

**Q.** For `O=C(O)C(S)C(S)C(=O)O` (centres unmarked) [2,3-dimercaptosuccinic acid], which “antidotal activity for antimony” value [5] is on record?
**A.** provides antidotal activity for antimony

**Q.** For `[Cl][Pb][Cl]` [Lead chloride], which LDLo (gpg [2]) is on record?
**A.** 2000 mg/kg

**Q.** For `O=Cc1ccc(O)cc1O` [2,4-dihydroxybenzaldehyde], which “spray-on reagent for identification of arsenic III” value [6] is on record?
**A.** useful as a spray-on reagent for the identification of arsenic III

**Q.** With lead oxide as the molecule, how does the LDLo (gpg [2]) read?
**A.** 1000 mg/kg

**Q.** Which Vapor pressure [7] does the source give for Formaldehyde Hydrosulfate here?
**A.** No vapor pressure

**Q.** What about the LDLo (mus) of the same molecule?
**A.** 3000 mg/kg

**Q.** And the toxicity grade (mus)?
**A.** Moderate toxicity

**Q.** Which “Time Required to Form Solid-State” value ([8]; 2 phr added to Neoprene 671 latex) does the source give for `F[Si-2](F)(F)(F)(F)F.[Na+].[Na+]` [Sodium Silicofluoride, sodium silicofluoride] here?
**A.** 150 min

**Q.** What about the “Time Required to Form Solid-State” value ([8]; 2.5 phr added to Neoprene 671 latex) of the same molecule?
**A.** 18 min

**Q.** And the “Time Required to Form Solid-State” value ([8]; 3 phr added to Neoprene 671 latex)?
**A.** 7 min

**Q.** What about the “Time Required to Form Solid-State” value ([8]; 4 phr added to Neoprene 671 latex) of the same molecule?
**A.** 5 min

**Q.** With `O=C(O)CN(CC(=O)O)CC(=O)O` [N,N-bis(carboxymethyl)glycine] as the molecule, how does the “antidotal activity for chromium” value [9] read?
**A.** provides antidotal activity for chromium

**Q.** What does the source list for `C=O` [Formaldehyde]?
**A.** Vapor pressure [7]: 0.187 kPa; LD50 (mus): 300 mg/kg; toxicity grade (mus): Severe toxicity

**Q.** For `[Cu]` [Copper], which TDLo (man; orl-hmn) is on record?
**A.** 0.12 mg/kg

**Q.** Which “antidotal activity for sodium arcenate” value [10] does the source give for `O=C(O)c1ccccc1C(=O)NCC(S)CS` (centres unmarked) [N-(2,3-dimercaptopropyl)phthalamidic acid] here?
**A.** provides antidotal activity for sodium arcenate

**Q.** For `[Sb]` [Antimony], which LDLo (man; unk.-man) is on record?
**A.** 15 mg/kg

**Q.** For `[Cr]` [Chromium], which LDLo (dog) is on record?
**A.** 330 mg/kg

**Q.** With `O=P([O-])([O-])[O-].[Na+].[Na+].[Na+]` [trisodiumphosphate] as the molecule, how does the “removal of CuO” value [11] read?
**A.** 55%

**Q.** Which “antidotal activity for copper” value [12] does the source give for `[SH-].[SH-].[S]=[Mo]=[S]` [Tetrathiomolybdate (VI)] here?
**A.** provides antidotal activity for copper

**Q.** With `[Cd]` [Cadmium] as the molecule, how does the TCLo (man; inhl-man) read?
**A.** 40 μg/m^3
